Measured values from patent publication US20170232083A1, “METHODS OF DIAGNOSIS AND TREATMENT OF CELIAC DISEASE IN CHILDREN” (priority 2014, published 2017).

Tested on: PBMC (polyclonal gluten-specific T cells) of paediatric and adult CD patients
Assay: IFN-γ ELISpot of PBMC after 3 day oral wheat challenge (SFU, % of maximal peptide response, dominance scores, EC50; Examples 5-6)
Type: cell-based, human
Settings: for Cross-reactive T cell response: following wheat challenge; for IFN-γ ELISpot response: after oral wheat challenge
[1] = subject I (3-5yrs/6-10yrs part)
[2] = subject J (3-5yrs/6-10yrs part)
[3] = subject K (3-5yrs/6-10yrs part)
[4] = subject V (3-5yrs/6-10yrs part)
[5] = subject W (3-5yrs/6-10yrs part)
[6] = subject Y (3-5yrs/6-10yrs part)
[7] = subject five (3-5yrs/6-10yrs part)
[8] = subject seven (3-5yrs/6-10yrs part)
[9] = subject six (3-5yrs/6-10yrs part)
[10] = subject ten (3-5yrs/6-10yrs part)
[11] = subject two (3-5yrs/6-10yrs part)

Sequence	Cross-reactive T cell response (subject A, 11-17yrs) [SFU]	Cross-reactive T cell response (subject D, 11-17yrs) [SFU]	Cross-reactive T cell response (subject E, 11-17yrs) [SFU]	Cross-reactive T cell response (subject F, 11-17yrs) [SFU]	Cross-reactive T cell response (subject G, 11-17yrs) [SFU]	Cross-reactive T cell response (subject H) [SFU]	Cross-reactive T cell response [1] [SFU]	Cross-reactive T cell response [2] [SFU]	Cross-reactive T cell response [3] [SFU]	Cross-reactive T cell response (subject P, 11-17yrs) [SFU]	Cross-reactive T cell response (subject Q, 11-17yrs) [SFU]	Cross-reactive T cell response (subject T, 11-17yrs) [SFU]	Cross-reactive T cell response (subject U, 11-17yrs) [SFU]	Cross-reactive T cell response [4] [SFU]	Cross-reactive T cell response [5] [SFU]	Cross-reactive T cell response [6] [SFU]	Cross-reactive T cell response [7] [SFU]	Cross-reactive T cell response (subject nine, 11-17yrs) [SFU]	Cross-reactive T cell response [8] [SFU]	Cross-reactive T cell response [9] [SFU]	other results
QPFPQPEQPFRQQ	1	15	37	21	3	0	4	15	21	16	44	58	21	20	8	8	37	0	6	5	Significant response as a percentage of maximal peptide SFU (subject D, 11-17yrs): ′′′ (41-70% = ′′′); Significant response as a percentage of maximal peptide SFU (subject E, 11-17yrs): ′ (11-20% = ′); Significant response as a percentage of maximal peptide SFU (subject F, 11-17yrs): ′ (11-20% = ′); Significant response as a percentage of maximal peptide SFU (subject J): (6-10% - ^); Significant response as a percentage of maximal peptide SFU (subject K): ′′ (21-40% = ′′); Significant response as a percentage of maximal peptide SFU (subject Q, 11-17yrs): ′′′ (41-70% = ′′′); Significant response as a percentage of maximal peptide SFU (subject T, 11-17yrs): ′′′ (41-70% = ′′′); Significant response as a percentage of maximal peptide SFU (subject U, 11-17yrs): ′′ (21-40% = ′′); Significant response as a percentage of maximal peptide SFU (subject V): ′′′ (41-70% = ′′′); Significant response as a percentage of maximal peptide SFU (subject five): + (>70% = +); Cross-reactive T cell response [10]: 6 SFU; Significant response as a percentage of maximal peptide SFU (subject two): ′′ (21-40% = ′′); Cross-reactive T cell response [11]: 24 SFU
FPQTEQPEQPFPQP	1	0	3	2	2	1	0	67	19	3	10	7	5	6	5	3	5	0	5	4	Significant response as a percentage of maximal peptide SFU (subject J): ′′ (21-40% = ′′); Significant response as a percentage of maximal peptide SFU (subject K): ′′ (21-40% = ′′); Significant response as a percentage of maximal peptide SFU (subject Q, 11-17yrs): ′ (11-20% = ′); Significant response as a percentage of maximal peptide SFU (subject ten): + (>70% = +); Cross-reactive T cell response [10]: 13 SFU; Cross-reactive T cell response [11]: 3 SFU
GIIQPQQPAQL	–	–	–	–	–	–	–	–	–	–	–	–	–	–	–	–	–	–	–	–	IFN-γ ELISpot response (patient G, 11-17 yrs, cut-off 10 SFU): 0 SFU; IFN-γ ELISpot response (patient H, 11-17 yrs, cut-off 10 SFU): 1 SFU; IFN-γ ELISpot response (patient ID not given, 11-17 yrs, cut-off 10 SFU): 2 SFU; Significant response as percentage of maximal peptide SFU (patient II, max peptide 15 SFU): + (>70% = +); Significant response as percentage of maximal peptide SFU (patient K, max peptide 53 SFU): ′′ (21-40% = ′′); IFN-γ ELISpot response (patient P, 11-17 yrs, cut-off 21.6 SFU): 7 SFU; IFN-γ ELISpot response (patient Q, 11-17 yrs, cut-off 10 SFU): 0 SFU; IFN-γ ELISpot response (patient U, H, 11-17 yrs, cut-off 10 SFU): 4 SFU; IFN-γ ELISpot response (patient V, 6-10 yrs, cut-off 10 SFU): 5 SFU; IFN-γ ELISpot response (patient Y, 6-10 yrs, cut-off 10 SFU): 2 SFU; IFN-γ ELISpot response (patient eleven, 6-10 yrs, cut-off 10 SFU): 1 SFU; IFN-γ ELISpot response (patient four, 3-5yrs, cut-off 10 SFU): 0 SFU; IFN-γ ELISpot response (patient seven, 6-10 yrs, cut-off 10.5 SFU): 3 SFU; IFN-γ ELISpot response (patient ten, 3-5yrs, cut-off 10 SFU): 5 SFU; IFN-γ ELISpot response (patient three, 6-10 yrs, cut-off 10.5 SFU): 3 SFU; IFN-γ ELISpot response (patient two, 3-5yrs, cut-off 10 SFU): 0 SFU
QPFPQPEQPFPQS	4	15	46	35	5	4	2	57	18	13	55	70	27	25	6	4	32	1	11	7	Significant response as a percentage of maximal peptide SFU (subject D, 11-17yrs): ′′′ (41-70% = ′′′); Significant response as a percentage of maximal peptide SFU (subject E, 11-17yrs): ′′ (21-40% = ′′); Significant response as a percentage of maximal peptide SFU (subject F, 11-17yrs): ′ (11-20% = ′); Significant response as a percentage of maximal peptide SFU (subject J): ′′ (21-40% = ′′); Significant response as a percentage of maximal peptide SFU (subject K): ′′ (21-40% = ′′); Significant response as a percentage of maximal peptide SFU (subject Q, 11-17yrs): ′′′ (41-70% = ′′′); Significant response as a percentage of maximal peptide SFU (subject T, 11-17yrs): + (>70% = +); Significant response as a percentage of maximal peptide SFU (subject U, 11-17yrs): ′′ (21-40% = ′′); Significant response as a percentage of maximal peptide SFU (subject V): + (>70% = +); Significant response as a percentage of maximal peptide SFU (subject five): ′′′ (41-70% = ′′′); Significant response as a percentage of maximal peptide SFU (subject seven): ′′′ (41-70% = ′′′); Significant response as a percentage of maximal peptide SFU (subject ten): + (>70% = +); Cross-reactive T cell response [10]: 12 SFU; Significant response as a percentage of maximal peptide SFU (subject two): ′′′ (41-70% = ′′′); Cross-reactive T cell response [11]: 44 SFU
PFPLQPEQPVPEQPQ	2	9	3	20	0	3	1	3	5	6	5	21	10	7	11	2	1	1	1	3	Significant response as a percentage of maximal peptide SFU (subject F, 11-17yrs): ′ (11-20% = ′); Significant response as a percentage of maximal peptide SFU (subject T, 11-17yrs): ′′ (21-40% = ′′); Significant response as a percentage of maximal peptide SFU (subject U, 11-17yrs): ′ (11-20% = ′); Significant response as a percentage of maximal peptide SFU (subject ten): + (>70% = +); Cross-reactive T cell response [10]: 11 SFU; Cross-reactive T cell response [11]: 5 SFU
